Assay results as given in paper PMC7979765, “trans-Translation inhibitors bind to a novel site on the ribosome and clear Neisseria gonorrhoeae in vivo” (Nature Communications, 2021).
In brackets after ≈: the same amount, converted by molar mass. Where two headings read alike, the source gives them in different places.

Experiments:
Escherichia coli = assay: microbe, parasite or virus in culture; assay type: cell-based
Neisseria gonorrhoeae = assay: MIC, microbroth dilution, G77L medium; assay type: cell-based
Solubility (formulated) = assay type: physicochemical

O=C(Nc1nnc(-c2ccc(F)cc2)o1)c1ccc(Cl)cc1 [KKL-35, 4-chloro-N-(5-(4-fluorophenyl)-1,3,4-oxadiazol-2-yl)benzamide]
MIC (Escherichia coli; Escherichia coli KLE700, replicates): ≥32 µg/mL | MIC (Escherichia coli; Escherichia coli KLE701 (ΔtolC), replicates): 0.50 µg/mL (≈ 1.57 µM) | MIC (Escherichia coli; Escherichia coli, E. coli KLE701 (ΔtolC::tet), source data, individual replicates): 0.496 µg/mL (≈ 1.56 µM) | MIC (Escherichia coli; Escherichia coli, Escherichia coli KLE700, replicates, read-out: MIC): ≥ 32 µg/mL | MIC (Escherichia coli; Escherichia coli, Escherichia coli KLE701 (ΔtolC), replicates): 0.5 µg/mL (≈ 1.57 µM) | MIC (Escherichia coli; Escherichia coli, strain KLE700, read-out: MIC): ≥ 32 µg/mL | MIC (Escherichia coli; Escherichia coli, strain KLE701, KLE700 ΔtolC::tet): 0.5 µg/mL (≈ 1.57 µM) | MIC (Neisseria gonorrhoeae; Neisseria gonorrhoeae, ATCC49226, Neisseria gonorrhoeae ATCC 49226, source data, individual replicates, read-out: MIC): 0.124 µg/mL (≈ 0.39 µM) | MIC (Neisseria gonorrhoeae; Neisseria gonorrhoeae, ATCC49226, strain ATCC 49226, geomean of replicates, read-out: MIC GEOMEAN): 0.124 µg/mL (≈ 0.39 µM) | MIC (Neisseria gonorrhoeae; Neisseria gonorrhoeae, ATCC49226, strain ATCC 49226, replicates 1-3, read-out: MIC): 0.124 µg/mL (≈ 0.39 µM) | MIC (Neisseria gonorrhoeae; Neisseria gonorrhoeae, ATCC49226, strain ATCC 49226, type strain, read-out: MIC): 0.12 µg/mL (≈ 0.378 µM) | MIC (Neisseria gonorrhoeae; Neisseria gonorrhoeae, ATCC49226, strain MMX ATCC 49226, broth dilution by Micromyx, read-out: MIC): 0.25 µg/mL (≈ 0.787 µM) | MIC (Neisseria gonorrhoeae; Neisseria gonorrhoeae, ATCC49226, strain MMX ATCC 49226, single data point, Micromyx, read-out: MIC): 0.25 µg/mL (≈ 0.787 µM) | MIC (Neisseria gonorrhoeae; Neisseria gonorrhoeae, ATCC700719, strain ATCC 700719, SPT, read-out: MIC): 0.25 µg/mL (≈ 0.787 µM) | MIC (Neisseria gonorrhoeae; Neisseria gonorrhoeae, ATCC700719, strain ATCC 700719, geomean of replicates, read-out: MIC GEOMEAN): 0.248 µg/mL (≈ 0.781 µM) | MIC (Neisseria gonorrhoeae; Neisseria gonorrhoeae, ATCC700719, strain ATCC 700719, replicates 1-3, read-out: MIC): 0.248 µg/mL (≈ 0.781 µM) | MIC (Neisseria gonorrhoeae; Neisseria gonorrhoeae, ATCC700825, strain ATCC 700825, STR, read-out: MIC): 0.06 µg/mL (≈ 0.189 µM) | MIC (Neisseria gonorrhoeae; Neisseria gonorrhoeae, ATCC700825, strain ATCC 700825, geomean of replicates, read-out: MIC GEOMEAN): 0.062 µg/mL (≈ 0.195 µM) | MIC (Neisseria gonorrhoeae; Neisseria gonorrhoeae, ATCC700825, strain ATCC 700825, replicates 1-3, read-out: MIC): 0.062 µg/mL (≈ 0.195 µM) | MIC (Neisseria gonorrhoeae; Neisseria gonorrhoeae, BAA1846, strain BAA-1846, TET, read-out: MIC): 0.06 µg/mL (≈ 0.189 µM) | MIC (Neisseria gonorrhoeae; Neisseria gonorrhoeae, BAA1846, strain BAA-1846, geomean of replicates, read-out: MIC GEOMEAN): 0.062 µg/mL (≈ 0.195 µM) | MIC (Neisseria gonorrhoeae; Neisseria gonorrhoeae, BAA1846, strain BAA-1846, replicates 1-3, read-out: MIC): 0.062 µg/mL (≈ 0.195 µM) | MIC (Neisseria gonorrhoeae; Neisseria gonorrhoeae, strain H041, Fig. 1B, read-out: N. gonorrhoeae H041 MIC): 0.12 µg/mL (≈ 0.378 µM) | MIC (Neisseria gonorrhoeae; Neisseria gonorrhoeae, strain HO41, PEN, TET, CFM, CRO, LVX, read-out: MIC): 0.25 µg/mL (≈ 0.787 µM) | MIC (Neisseria gonorrhoeae; Neisseria gonorrhoeae, strain HO41, geomean of replicates, read-out: MIC GEOMEAN): 0.248 µg/mL (≈ 0.781 µM) | MIC (Neisseria gonorrhoeae; Neisseria gonorrhoeae, strain HO41, replicates 1-3, read-out: MIC): 0.248 µg/mL (≈ 0.781 µM) | MIC (Neisseria gonorrhoeae; Neisseria gonorrhoeae, strain MMX 6744, broth dilution by Micromyx, read-out: MIC): 0.13 µg/mL (≈ 0.409 µM) | MIC (Neisseria gonorrhoeae; Neisseria gonorrhoeae, strain MMX 6744, single data point, Micromyx, read-out: MIC): 0.13 µg/mL (≈ 0.409 µM) | MIC (Neisseria gonorrhoeae; Neisseria gonorrhoeae, strain MMX 6746, CIP, by Micromyx, read-out: MIC): 0.13 µg/mL (≈ 0.409 µM) | MIC (Neisseria gonorrhoeae; Neisseria gonorrhoeae, strain MMX 6746, single data point, Micromyx, read-out: MIC): 0.13 µg/mL (≈ 0.409 µM) | MIC (Neisseria gonorrhoeae; Neisseria gonorrhoeae, strain MMX 6752, TET, by Micromyx, read-out: MIC): 0.25 µg/mL (≈ 0.787 µM) | MIC (Neisseria gonorrhoeae; Neisseria gonorrhoeae, strain MMX 6752, single data point, Micromyx, read-out: MIC): 0.25 µg/mL (≈ 0.787 µM) | MIC (Neisseria gonorrhoeae; Neisseria gonorrhoeae, strain MMX 6753, by Micromyx, read-out: MIC): 0.06 µg/mL (≈ 0.189 µM) | MIC (Neisseria gonorrhoeae; Neisseria gonorrhoeae, strain MMX 6753, single data point, Micromyx, read-out: MIC): 0.06 µg/mL (≈ 0.189 µM) | MIC (Neisseria gonorrhoeae; Neisseria gonorrhoeae, strain MMX 6757, by Micromyx, read-out: MIC): 0.06 µg/mL (≈ 0.189 µM) | MIC (Neisseria gonorrhoeae; Neisseria gonorrhoeae, strain MMX 6757, single data point, Micromyx, read-out: MIC): 0.06 µg/mL (≈ 0.189 µM) | MIC (Neisseria gonorrhoeae; Neisseria gonorrhoeae, strain MMX 6758, by Micromyx, read-out: MIC): 0.13 µg/mL (≈ 0.409 µM) | MIC (Neisseria gonorrhoeae; Neisseria gonorrhoeae, strain MMX 6758, single data point, Micromyx, read-out: MIC): 0.13 µg/mL (≈ 0.409 µM) | MIC (Neisseria gonorrhoeae; Neisseria gonorrhoeae, strain MMX 6762, by Micromyx, read-out: MIC): 0.13 µg/mL (≈ 0.409 µM) | MIC (Neisseria gonorrhoeae; Neisseria gonorrhoeae, strain MMX 6762, single data point, Micromyx, read-out: MIC): 0.13 µg/mL (≈ 0.409 µM) | MIC (Neisseria gonorrhoeae; Neisseria gonorrhoeae, strain MMX 6767, by Micromyx, read-out: MIC): 0.06 µg/mL (≈ 0.189 µM) | MIC (Neisseria gonorrhoeae; Neisseria gonorrhoeae, strain MMX 6767, single data point, Micromyx, read-out: MIC): 0.06 µg/mL (≈ 0.189 µM) | MIC (Neisseria gonorrhoeae; Neisseria gonorrhoeae, strain MMX 6771, TET, by Micromyx, read-out: MIC): 0.06 µg/mL (≈ 0.189 µM) | MIC (Neisseria gonorrhoeae; Neisseria gonorrhoeae, strain MMX 6771, single data point, Micromyx, read-out: MIC): 0.06 µg/mL (≈ 0.189 µM) | MIC (Neisseria gonorrhoeae; Neisseria gonorrhoeae, strain MMX 6793, CIP, by Micromyx, read-out: MIC): 0.06 µg/mL (≈ 0.189 µM) | MIC (Neisseria gonorrhoeae; Neisseria gonorrhoeae, strain MMX 6793, single data point, Micromyx, read-out: MIC): 0.06 µg/mL (≈ 0.189 µM) | MIC (Neisseria gonorrhoeae; Neisseria gonorrhoeae, strain MMX 6797, CIP, TET, by Micromyx, read-out: MIC): 0.06 µg/mL (≈ 0.189 µM) | MIC (Neisseria gonorrhoeae; Neisseria gonorrhoeae, strain MMX 6797, single data point, Micromyx, read-out: MIC): 0.06 µg/mL (≈ 0.189 µM) | MIC (Neisseria gonorrhoeae; Neisseria gonorrhoeae, strain MMX 6803, CIP, by Micromyx, read-out: MIC): 0.13 µg/mL (≈ 0.409 µM) | MIC (Neisseria gonorrhoeae; Neisseria gonorrhoeae, strain MMX 6803, single data point, Micromyx, read-out: MIC): 0.13 µg/mL (≈ 0.409 µM) | MIC (Neisseria gonorrhoeae; Neisseria gonorrhoeae, strain MMX 6812, CIP, by Micromyx, read-out: MIC): 0.13 µg/mL (≈ 0.409 µM) | MIC (Neisseria gonorrhoeae; Neisseria gonorrhoeae, strain MMX 6812, single data point, Micromyx, read-out: MIC): 0.13 µg/mL (≈ 0.409 µM) | MIC (Neisseria gonorrhoeae; Neisseria gonorrhoeae, strain MMX 6818, CIP, by Micromyx, read-out: MIC): 0.13 µg/mL (≈ 0.409 µM) | MIC (Neisseria gonorrhoeae; Neisseria gonorrhoeae, strain MMX 6818, single data point, Micromyx, read-out: MIC): 0.13 µg/mL (≈ 0.409 µM) | MIC (Neisseria gonorrhoeae; Neisseria gonorrhoeae, strain MMX 6819, CIP, by Micromyx, read-out: MIC): 0.13 µg/mL (≈ 0.409 µM) | MIC (Neisseria gonorrhoeae; Neisseria gonorrhoeae, strain MMX 6819, single data point, Micromyx, read-out: MIC): 0.13 µg/mL (≈ 0.409 µM) | MIC (Neisseria gonorrhoeae; Neisseria gonorrhoeae, strain MMX 6879, by Micromyx, read-out: MIC): 0.06 µg/mL (≈ 0.189 µM) | MIC (Neisseria gonorrhoeae; Neisseria gonorrhoeae, strain MMX 6879, single data point, Micromyx, read-out: MIC): 0.06 µg/mL (≈ 0.189 µM) | MIC (Neisseria gonorrhoeae; Neisseria gonorrhoeae, strain MMX 6921, CIP, by Micromyx, read-out: MIC): 0.25 µg/mL (≈ 0.787 µM) | MIC (Neisseria gonorrhoeae; Neisseria gonorrhoeae, strain MMX 6921, single data point, Micromyx, read-out: MIC): 0.25 µg/mL (≈ 0.787 µM) | MIC (Neisseria gonorrhoeae; Neisseria gonorrhoeae, strain MMX 6922, CIP, by Micromyx, read-out: MIC): 0.25 µg/mL (≈ 0.787 µM) | MIC (Neisseria gonorrhoeae; Neisseria gonorrhoeae, strain MMX 6922, single data point, Micromyx, read-out: MIC): 0.25 µg/mL (≈ 0.787 µM) | MIC (Neisseria gonorrhoeae; Neisseria gonorrhoeae, strain MMX 6983, CIP, by Micromyx, read-out: MIC): 0.25 µg/mL (≈ 0.787 µM) | MIC (Neisseria gonorrhoeae; Neisseria gonorrhoeae, strain MMX 6983, single data point, Micromyx, read-out: MIC): 0.25 µg/mL (≈ 0.787 µM) | MIC (Neisseria gonorrhoeae; Neisseria gonorrhoeae, strain MMX 6989, by Micromyx, read-out: MIC): 0.13 µg/mL (≈ 0.409 µM) | MIC (Neisseria gonorrhoeae; Neisseria gonorrhoeae, strain MMX 6989, single data point, Micromyx, read-out: MIC): 0.13 µg/mL (≈ 0.409 µM) | MIC (Neisseria gonorrhoeae; Neisseria gonorrhoeae, strain MMX 6990, CIP, by Micromyx, read-out: MIC): 0.06 µg/mL (≈ 0.189 µM) | MIC (Neisseria gonorrhoeae; Neisseria gonorrhoeae, strain MMX 6990, single data point, Micromyx, read-out: MIC): 0.06 µg/mL (≈ 0.189 µM) | MIC (Neisseria gonorrhoeae; Neisseria gonorrhoeae, strain MMX 6992, by Micromyx, read-out: MIC): 0.13 µg/mL (≈ 0.409 µM) | MIC (Neisseria gonorrhoeae; Neisseria gonorrhoeae, strain MMX 6992, single data point, Micromyx, read-out: MIC): 0.13 µg/mL (≈ 0.409 µM) | MIC (Neisseria gonorrhoeae; Neisseria gonorrhoeae, strain MMX 6996, by Micromyx, read-out: MIC): 0.13 µg/mL (≈ 0.409 µM) | MIC (Neisseria gonorrhoeae; Neisseria gonorrhoeae, strain MMX 6996, single data point, Micromyx, read-out: MIC): 0.13 µg/mL (≈ 0.409 µM) | MIC (Neisseria gonorrhoeae; Neisseria gonorrhoeae, strain MMX 6998, CIP, by Micromyx, read-out: MIC): 0.25 µg/mL (≈ 0.787 µM) | MIC (Neisseria gonorrhoeae; Neisseria gonorrhoeae, strain MMX 6998, single data point, Micromyx, read-out: MIC): 0.25 µg/mL (≈ 0.787 µM) | MIC (Neisseria gonorrhoeae; Neisseria gonorrhoeae, strain MMX 7002, CIP, by Micromyx, read-out: MIC): 0.13 µg/mL (≈ 0.409 µM) | MIC (Neisseria gonorrhoeae; Neisseria gonorrhoeae, strain MMX 7002, single data point, Micromyx, read-out: MIC): 0.13 µg/mL (≈ 0.409 µM) | MIC (Neisseria gonorrhoeae; Neisseria gonorrhoeae, strain MMX 7005, by Micromyx, read-out: MIC): 0.03 µg/mL (≈ 0.0944 µM) | MIC (Neisseria gonorrhoeae; Neisseria gonorrhoeae, strain MMX 7005, single data point, Micromyx, read-out: MIC): 0.03 µg/mL (≈ 0.0944 µM) | MIC90 (Neisseria gonorrhoeae; Neisseria gonorrhoeae, Supplementary Table 3, n = 32 (KKL-35), 71 (MBX-4132) strains, read-out: MIC90 (n)): 0.25 µg/mL (≈ 0.787 µM) | MIC (Neisseria gonorrhoeae; strain ATCC 49226, replicates 1-3): 0.124 µg/mL (≈ 0.39 µM) | MIC (Neisseria gonorrhoeae; strain ATCC 700719, replicates 1-3): 0.248 µg/mL (≈ 0.781 µM) | MIC (Neisseria gonorrhoeae; strain ATCC 700825, replicates 1-3): 0.062 µg/mL (≈ 0.195 µM) | MIC (Neisseria gonorrhoeae; strain BAA-1846, replicates 1-3): 0.062 µg/mL (≈ 0.195 µM) | MIC (Neisseria gonorrhoeae; strain HO41, replicates 1-3): 0.248 µg/mL (≈ 0.781 µM) | Solubility (Solubility (formulated)): 1000 µg/mL (≈ 3150 µM)
